# Results taken from article PMC12040169 (PLOS Biology, 2025).
# Test: in vitro
# Details: human, hela cells, % viability
row,SMILES,"viability at 28.5 h, 10 µM"
1,COC(=O)c1cn(-c2ccc(Cl)cc2)c(=O)c2ccccc12 [CBK116489],101%
2,CCCC1CCN(c2ncnc(Oc3ccc(C(=O)c4ccc(F)cc4)cc3)c2[N+](=O)[O-])CC1 [CBK116495],85%
3,O=C1CN(c2ccccc2)C(=O)N1c1ccccc1 [CBK116496],98.2%
4,Cn1c(=O)n(-c2cccc(Cl)c2)c(=O)n1C [CBK116498],82.2%
5,CCN(CC)S(=O)(=O)c1cccc(-n2sc3ccccc3c2=O)c1 [CBK116501],96.2%
6,CCN1CC2(CCNCC2)c2ccccc21 [CBK116520],90.4%
7,O=C(c1cc(-c2ccc(Cl)cc2)[nH]n1)N1CCN(c2ncccn2)CC1 [CBK116551],93%
8,CC(C)(N)CNC(=O)c1cc(-c2ccc(Cl)cc2)[nH]n1 [CBK116554],91.5%
9,O=C(Nc1cccnc1)c1cc(-c2ccc(Cl)cc2)on1 [CBK116555],92.8%
10,CN(C)CCCNC(=O)c1cc(-c2ccc(Cl)cc2)on1 [CBK116557],90.2%
11,O=C(CC1CC1)Nc1cc(-c2ccncc2)c[nH]c1=O [CBK116585],91.9%
12,CN1CCC[C@H]1C(=O)Nc1cc(-c2ccncc2)c[nH]c1=O [CBK116587],107%
13,COc1ccc2[nH]cc(CCNC(=O)CCC(=O)O)c2c1 [CBK116605],96.5%
14,COc1ccc(COc2nc3ccccc3nc2NC(C)C)cc1OC [CBK116610],93.5%
15,COc1ccc(COc2nccnc2N2CCCC2)cc1OC [CBK116613],94.8%
16,FC(F)(F)c1cccnc1OCCOc1ccc(Cl)cc1 [CBK116621],90.5%
17,CC(C)(C)c1cc(C(=O)NCCN)n(Cc2ccc(Cl)cc2Cl)n1 [CBK116631T],95.1%
18,O=C(Nc1ccncc1)c1cnc2cc(C(F)(F)F)ccc2c1O [CBK116633T],92.1%
19,O=C(NCc1ccccn1)c1cnn(-c2ccc(Cl)cc2)c1C(F)(F)F [CBK116637T],101%
20,CN(C)C(=O)c1ccc(-c2cnc(N)c(-c3ccc(O)cc3)n2)cc1 [CBK116686],91.7%
21,O=C(NCc1ccc(F)cc1)N(Cc1cccc(Cl)c1)CC1CCNCC1 [CBK119479],117%
22,COc1ccc(CCCC(=O)Nc2cc3cccnc3c(Br)n2)cc1 [CBK119486],99.6%
23,O=C(NC1CC2CCC(C1)N2Cc1ccccc1)c1ccc(Cl)cc1 (centres unmarked) [CBK120192],88.4%

row,SMILES,"viability at 28.5 h, 10 µM"
1,CC1CCCCN1Cc1ccc(-c2nnn(CC(=O)NCc3ccco3)n2)cc1 (centres unmarked) [CBK122002],96%
2,CCN(CC)CCC(=O)N1CC2(CCN(C(=O)OCc3ccccc3)CC2)c2ccccc21 [CBK122479],106%
3,Nc1ncc(-c2cc(C(F)(F)F)cc(C(F)(F)F)c2)nc1-c1ccc(O)cc1 [CBK122503],98.3%
4,Nc1ncc(-c2ccc3c(c2)OCO3)nc1-c1ccc(O)cc1 [CBK122505],94.7%
5,Nc1ncc(-c2cccc([N+](=O)[O-])c2)nc1-c1ccc(O)cc1 [CBK122507],101%
6,CC(=O)c1cccc(-c2cnc(N)c(-c3ccc(O)cc3)n2)c1 [CBK122508],98.1%
7,Nc1ncnc2[nH]nc(Nc3ccc(F)cc3)c12 [CBK122523],79%
8,O=C(O)CCSc1ccnc2ccccc12 [CBK122524C],93.2%
9,CCC1(CC)OC(NCc2ccccc2)=NC1=O [CBK122636],86.2%
10,CCN(CC)CCNC(=O)c1cccc(Nc2cncc(-c3ccc(O)cc3)n2)c1 [CBK122671],96.9%
11,CCCCOc1ccc(OC(=O)C2CCN(CCCC)CC2)cc1 [CBK122680],112%
12,CCCCN1CCC(C(=O)Oc2ccc(OC)c3ccccc23)CC1 [CBK122682],97.2%
13,Cc1cccc(C)c1NC(=O)CN(Cc1ccccc1)Cc1cc2ccc(C)c(C)c2[nH]c1=O [CBK122696T],94.4%
14,CCNC(=O)N1CC2(CCN(CCOc3ccccc3)CC2)c2ccccc21 [CBK122701],93.9%
15,CC(C)C(=O)N1CC2(CCN(Cc3ccc(C(C)C)cc3)CC2)c2ccccc21 [CBK122702],98.8%
16,CC(C)c1ccc(CN2CCC3(CC2)CN(CCO)c2ccccc23)cc1 [CBK122708],93.4%
17,COc1ccc2[nH]cc(CCNC(=O)c3ccc4nc[nH]c4c3)c2c1 [CBK122714],94.5%
18,COc1ccc2[nH]cc(CCNC(=O)c3ccc4[nH]c(=O)[nH]c4c3)c2c1 [CBK122721],93.4%
19,COc1ccc2[nH]cc(CCNC(=O)c3cccnc3)c2c1 [CBK122722],101%
20,COc1ccccc1OCC(=O)Nc1cc(C)nc2ccccc12 [CBK122728],97.3%
21,CSCCC(=O)Nc1cc(C)nc2ccccc12 [CBK122729],108%
22,Cc1cc(NC(=O)C2CCN(C)CC2)c2ccccc2n1 [CBK122730],91.1%
23,Cc1cc(NC(=O)c2c(F)cccc2F)c2ccccc2n1 [CBK122737],92.7%

row,SMILES,"viability at 28.5 h, 10 µM"
1,Cc1cc(NC(=O)c2ccc3c(c2)OCCO3)c2ccccc2n1 [CBK122739],103%
2,COc1cc2c(cc1OC)CN(C(=O)C1CCN(C)CC1)CC2 [CBK122744],93.2%
3,COc1cc2c(cc1OC)CN(C(=O)Cn1cc(C)c(=O)[nH]c1=O)CC2 [CBK122745],92.4%
4,COc1cc2c(cc1OC)CN(C(=O)c1cncnc1)CC2 [CBK122748],105%
5,COc1cc2c(cc1OC)CN(C(=O)Cc1ccccc1)CC2 [CBK122751],90.7%
6,COc1ccc(Cn2c(=O)[nH]n(-c3ccccc3)c2=O)cc1F [CBK122772],86.5%
7,C[C@H](NC1=NC(=O)C2(CCN(Cc3ccccc3)CC2)O1)c1ccccc1 [CBK122798T],88.6%
8,CCCOc1ccc(O)cc1 [CBK122802],97.8%
9,COC(=O)CCc1ccc(-c2cnc(N)c(-c3ccc(O)cc3)n2)cc1 [CBK122809],88.9%
10,O=S(=O)(c1ccc(-c2cncc(-c3ccc(O)cc3)n2)cc1)N1CCOCC1 [CBK123786],84.6%
11,OCc1ccc(-c2cncc(-c3ccc(O)cc3)n2)cc1 [CBK123792],91.4%
12,CC(=O)Nc1cccc(-c2cncc(-c3ccc(O)cc3)n2)c1 [CBK123795],77.8%
13,O=C(c1cccc(-c2cncc(-c3ccc(O)cc3)n2)c1)N1CCOCC1 [CBK123796],100%
14,CC(C)OC(=O)c1cc2c(ccn2-c2ccc(F)cc2)n1CCC#N [CBK123921],95%
15,CCC1(CC)OC(N[C@@H](C)c2ccc3ccccc3c2)=NC1=O [CBK123982],90.2%
16,CCC1(CC)OC(NC[C@@H](C)c2ccccc2)=NC1=O [CBK123983],116%
17,Nc1ncc(-c2ccc(C(=O)N3CCOCC3)cc2)nc1-c1cccnc1 [CBK126356],106%
18,Nc1ncc(-c2ccc(C(=O)N3CCOCC3)cc2)nc1-c1ccc(C[C@H](N)C(=O)O)cc1 [CBK126364],97%
19,Nc1ncc(-c2ccc(C(=O)N3CCOCC3)cc2)nc1-c1ccc(CCC(=O)O)cc1 [CBK126368],97.3%
20,CC(C)(O)C1(C)OC(NC2C3CC4CC(C3)CC2C4)=NC1=O (centres unmarked) [CBK126370],91.2%
21,N#Cc1cccc(CN2CCC(Cc3ccccc3)CC2)c1 [CBK126380],87.1%
22,c1ccc(CC2CCN(CCc3c[nH]c4ccccc34)CC2)cc1 [CBK126385],94.9%
23,O=S(=O)(CCN1CCC(Cc2ccccc2)CC1)c1ccccc1 [CBK126386],94.9%

row,SMILES,"viability at 28.5 h, 10 µM"
1,O=C(CN1CCC(Cc2ccccc2)CC1)Nc1ccc(F)c(Cl)c1 [CBK126387],92.4%
2,c1ccc(CC2CCN(CCC(c3ccccc3)c3ccccc3)CC2)cc1 [CBK126389],102%
3,COc1cc2c(cc1OC)CN(CC(N)=O)CC2 [CBK126391],86.8%
4,Clc1ccc(CN2CCc3ccccc3C2)cc1Cl [CBK126395],103%
5,c1ccc2c(c1)CCN(Cc1nc3ccccc3[nH]1)C2 [CBK126396],92.2%
6,c1ccc2c(c1)CCN(Cc1ccc3ccccc3c1)C2 [CBK126397],122%
7,c1ccc2c(c1)CCN(Cc1ncc[nH]1)C2 [CBK126402],94.7%
8,COc1ccc(OCCN2CCc3ccccc3C2)cc1 [CBK126403],94.8%
9,c1ccc(C(CCN2CCc3ccccc3C2)c2ccccc2)cc1 [CBK126404],99.1%
10,COc1ccc(Cl)cc1N1CCN(CC(=O)Nc2ccc(F)c(Cl)c2)CC1 [CBK126417],101%
11,COc1ccc(Cl)cc1N1CCN(Cc2ncc[nH]2)CC1 [CBK126418],98.1%
12,Clc1ccc(CN2CCN(CCc3ccccc3)CC2)cc1Cl [CBK126420],96.3%
13,c1ccc(CCN2CCN(Cc3cccnc3)CC2)cc1 [CBK126424],103%
14,c1ccc(CCN2CCN(CCC(c3ccccc3)c3ccccc3)CC2)cc1 [CBK126432],85.4%
15,c1ccc(CC2CCN(CCOc3ccccc3)CC2)cc1 [CBK126433],107%
16,c1ccc(CCN2CCC(Cc3ccccc3)CC2)cc1 [CBK126434],96.3%
17,COc1cccc(CN2CCC(Cc3ccccc3)CC2)c1 [CBK126436],103%
18,COc1cc2c(cc1OC)CN(CCN1CCCCC1)CC2 [CBK126439],101%
19,COc1cccc(CN2CCc3cc(OC)c(OC)cc3C2)c1 [CBK126441],102%
20,CN(C)C(=O)CN1CCN(CCc2ccccc2)CC1 [CBK126455],98.8%
21,CCOC(=O)CN(Cc1ccccc1)Cc1ccc(OC)cc1 [CBK126460],103%

# Same assay, conditions: human, hela cells, % viability, bulk resorufin, single well
row,SMILES,"viability at 28.5 h, 10 µM"
1,O=[N+]([O-])c1ccc2c(c1)COC1(CCNCC1)O2 [CBK116644],83.7%
2,COc1ccc(Cl)cc1N1CCN(Cc2c(F)cccc2F)CC1 [CBK126410],90.9%
